The values that follow come from ChEMBL document CHEMBL1201862, “PubChem BioAssay data set” (2004).

The structures appear in SMILES notation.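 In this assay, cells in 96-well plates receive the compound at five concentrations for 48 hours. Endpoints are linearly interpolated between the surrounding concentrations. GI50 = concentration required for 50% inhibition of growth.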 The source made the active and inactive calls. No stated cut-off is given here; in the data, active = GI50 up to about 1.1 µM and inactive = higher. Some results are limits rather than exact numbers.

Holding throughout (test): growth of human tumour cells (NCI), 48 h
In assay [1] the test system is Malme-3M.
Assay [2] has as its system MDA-N.
Assay [3] deals with HOP-62.
Assay [4] has as its system DU-145.
In assay [5] the test system is HOP-92.
In assay [6] the test system is KM-20L2.
Assay [7] deals with A498.
In assay [8] the test system is SF-295.
The test system of assay [9] is SF-268.
Assay [10] concerns KM12.
The test system of assay [11] is U-251.
For assay [12], the system named is OVCAR-8.
For assay [13], the system named is K562.
Assay [14] concerns COLO 205.
For assay [15], the system named is UACC-62.
In assay [16] the test system is CAKI-1.
Assay [17] relates to HCT-116.
In assay [18] the test system is PC-3.
Assay [19] relates to HT-29.
Assay [20] concerns RPMI-8226.

Turning to `CC(=O)NC(CCCCN(Cc1ccccc1)C(=O)N(CCCl)N=O)C(=O)NCc1ccccc1` (centres undefined), the GI50 in assay [1] was 37.5 µM (inactive); in assay [2] it was 14.9 µM (inactive); in assay [3], 17 µM (inactive); in assay [4], 25.7 µM (inactive); in assay [5], 33 µM (inactive); in assay [6] it was > 52.8 µM (inactive). For the same molecule, the GI50 in assay [7] was > 100 µM (inactive); in assay [8], 7.21 µM (inactive); in assay [9], 3.48 µM (inactive); in assay [10], 38.5 µM (inactive); in assay [11], 11.6 µM (inactive); in [12], 17.4 µM (inactive). The GI50 was 36.6 µM (inactive) in assay [13]; 42.2 µM (inactive) in assay [14]; 3.15 µM (inactive) in assay [15]; > 26.8 µM (inactive) in assay [16]; > 49.5 µM (inactive) in assay [17]; > 35.5 µM (inactive) in assay [18]. The results for the GI50 in [19] and in assay [20] were 42 µM (inactive) and 41.7 µM (inactive), respectively.

Take `Cc1c(CNc2ccc(Cl)c(C(=O)NC(CC(=O)O)C(=O)O)c2)ccc2nc(N)nc(N)c12` (centres undefined): the GI50 in assay [1] was 121 µM (inactive); in [2], < 0.01 µM (active); in [3], 0.256 µM (active); in assay [4], 0.0588 µM (active); in assay [6], 0.665 µM (active); in assay [7], 1.52 µM (inactive). Further, the GI50 in assay [8] is 0.126 µM (active); in assay [9], 0.209 µM (active); in assay [10], 0.106 µM (active); in assay [11], 0.134 µM (active); in assay [12], 0.0399 µM (active); in assay [13] it was < 0.12 µM (active). For the same molecule, the GI50 in [14] was 4.66 µM (inactive); in [15] it was 0.0501 µM (active); in assay [16] it was < 0.0311 µM (active); in assay [17], < 0.01 µM (active); in assay [18], 178 µM (inactive); in assay [19], < 0.0208 µM (active). Further, in assay [20], the GI50 was > 100 µM (inactive).

As for `CC(C)S(=O)(=O)ON1C(=O)c2ccc(N(C)C)cc2C1=O`, the GI50 was 2.93 µM (inactive) in assay [1]; 4.01 µM (inactive) in assay [2]; 42.5 µM (inactive) in assay [3]; > 10 µM (inactive) in assay [4]; 7.35 µM (inactive) in assay [5]; 20.4 µM (inactive) in assay [6]. For the same molecule, the GI50 in assay [7] was > 43.7 µM (inactive); in [8] it was 30.9 µM (inactive); in [9], 24 µM (inactive); in assay [10] it was 21.4 µM (inactive); in assay [11], 15.8 µM (inactive); in assay [12], 2.65 µM (inactive). For the same molecule, the GI50 in [13] is 3.41 µM (inactive); in [14], 2.86 µM (inactive); in [15] it was 15.5 µM (inactive); in [16], 5.35 µM (inactive); in [17], 14.8 µM (inactive); in assay [18], > 10 µM (inactive). For the same molecule, the values for the GI50 in assay [19] and in [20] were 22.8 µM (inactive) and 2.58 µM (inactive), respectively.

Turning to `CN1CCN(c2ccc3[nH]c(-c4ccc5[nH]c(-c6ccc(O)cc6)nc5c4)nc3c2)CC1`, the GI50 in [1] is 2.64 µM (inactive); in [2], 22.9 µM (inactive); in assay [3], 250 µM (inactive); in [4], 329 µM (inactive); in assay [5], 33.7 µM (inactive); in assay [6] it was 158 µM (inactive). The GI50 in [7] was 241 µM (inactive); in [9], 70.8 µM (inactive); in [10], 242 µM (inactive); in assay [11], 179 µM (inactive); in assay [13] it was 23.3 µM (inactive); in assay [16], 105 µM (inactive). Also, the GI50 in [17] was 13.5 µM (inactive); in [18] it was 687 µM (inactive); in assay [19], 92.7 µM (inactive).

As to `CCCCCC(=O)OC[n+]1ccc2c(C)c3[nH]c4ccc(OC)cc4c3c(C)c2c1`, the GI50 in assay [1] is 1.37 µM (inactive); in assay [2], 0.332 µM (active); in [3], 0.586 µM (active); in assay [4], 0.505 µM (active); in assay [5] it was 1.2 µM (inactive); in assay [6] it was > 100 µM (inactive). Moreover, the GI50 in [7] was 1.07 µM (active); in assay [8], 0.395 µM (active); in [9] it was 0.211 µM (active); in assay [10], 0.225 µM (active); in [11], 0.321 µM (active); in assay [12], 0.112 µM (active). Also, the GI50 in assay [13] is 0.0632 µM (active); in assay [14] it was 0.251 µM (active); in [15] it was 0.966 µM (active); in assay [16], 1.06 µM (active); in [17], 0.0482 µM (active); in [18] it was 0.193 µM (active). Besides, the GI50 was 0.0897 µM (active) in [19] and 0.0619 µM (active) in assay [20].
